Data: patent US20240417393A1, “CERTAIN 2,5-DIAZABICYCLO[4.2.0]OCTANES AS GLP-1 RECEPTOR MODULATORS” (ASTRAZENECA AB, priority 2021, published 2024)

How the values were obtained:
human GLP-1R receptor = target: T1, human GLP-1R receptor (Homo sapiens, UniProt P43220, L260F); assay: CHOK1 GLP-1R cAMP Assay (HTRF); type: cell-based; conditions: CHO-K1 cells stably expressing human GLP-1R (Leu260Phe variant), 20 min at rt
T1 construct: expressed in transfected cells; host or cells: CHO-K1 (ATCC CCL-61)
Method: A cell line stably expressing the human GLP-1R receptor (NM_002062.5, including the naturally-occurring variant Leu260Phe) in a CHO-K1 (ATCC® CCL-61™) was used for assay.
GLP-1 receptor mediated agonist activity was determined in a cell-based assay measuring cyclic adenosine monophosphate (cAMP) levels in cells using Homogeneous Time-Resolved Fluorescence (HTRF) cAMP detection kit (CisBio catalog #62AM4PEC, cAMP Gs Dynamic range kit). The cAMP detection method is based on a competitive immunoassay, in which cAMP produced by the cells and cAMP labeled with the dye d2 compete for binding to a Europium-Cryptate-labeled anti-cAMP antibody. The specific HTRF signal is inversely proportional to the concentration of cAMP.
Compounds were added to individual well in 384 well-assay plates (Greiner #784076) using an Echo (LabCyte) dispenser from 10 mM stocks. Varying concentration of compounds were added to wells, and DMSO was used to normalize each well to a volume of 100 nL. A dose response curve of GLP-1(7-36)NH2 (Bachem H-6795) was included in each run. 5 μL of cAMP concentration response standards are applied in specified wells in the assay plates. Cryo-preserved cells are thawed and resuspended in assay buffer pre-heated to 37° C. (20 mM 2-[4-(2-hydroxyethyl)piperazin-1-yl]ethanesulfonic acid (HEPES) pH 7.4, 1× Hank's Balanced Salt Solution (HBSS, Life Technologies #14065) supplemented with 0.1% (w/v) bovine serum albumin (Sigma, A-7030)). Cells were centrifuged at 250*g for 5 min at rt, and resuspended in room tempered assay buffer to a final density of 0.16*10^6 cell/mL, to deliver 800 cells/well. 5 μL of assay buffer with 1 mM 3-isobutyl-1-methylxanthin (IBMX; Sigma cat I-7018) was dispensed per well in assay plates using a multidrop combi (Thermo Scientific) subsequently 5 μL of cell suspension was distributed to relevant wells in the assay using a multidrop dispenser. Assay plates were incubated 20 min at rt.
Detection reagents, Europium-Cryptate-labeled anti-cAMP antibody and cAMP labeled with the dye d2, are diluted in lysis buffer, provided by the manufacturer. 5 μL of each detection reagent is supplemented to each assay well using a multidrop dispenser. Assay plates are incubated in the dark for at least one h. The HTRF signal is measured using the HTRF module (excitation: 337 nm, emission A: 665 nm and emission B: 620 nm) in Pherastar FSX (BMG Labtech).
Raw data were converted to pM cAMP using the cAMP standard curve included in each run. Converted data were further analyzed in Genedata Screener (Genedata) and EC50 determinations were made from agonist dose-response curves analyzed with a curve fitting is program using a 4-parameter logistic dose response equation (Equation y=A+((B-A)/1+((C/x)^D))) where A is no stimulation, B is full stimulation, C is the EC50 and D is the Hill slope). The percent effect was determined relative to a saturating concentration of a full GLP-1R agonist (GLP-1(7-36)NH2 has 100% effect in this assay setup).

[1] = target: T2, GLP-1R in a pancreatic insulinoma cell line (EndoC-PH1) (Homo sapiens, UniProt P43220); assay: EndoC cAMP Accumulation Assay (HTRF); type: cell-based; conditions: EndoC-PH1 human pancreatic beta cell line, endogenous GLP-1R, 30 min at rt
T2 construct: host or cells: EndoC-βH1 human pancreatic beta cell line
Excerpt: EndoC cAMP Accumulation Assay
A HTRF cAMP assay (cAMP Gs dynamic kit; CisoBio Cat #62AM4PEJ) was used to identify agonists of GLP-1R in a pancreatic insulinoma cell line (EndoC-PH1). […] EndoC-PHlcells have detectable GLP-1R messenger ribonucleic acid (mRNA) as detected by quantitative polymerase chain reaction (qPCR). […] The EndoC-PH1 cell line is a valid model of human beta cells and applicable for screenings to identify novel drug target candidates (Mol. Metab., 2018, 8, 144-157). CisBio HTRF cAMP kits are based on a competitive immunoassay using cryptate-labelled anti-cAMP antibody and d2-labeled cAMP. The detection kit is intended for the direct is quantitative determination of cAMP. The specific signal (i.e. energy transfer) is inversely proportional to the concentration of cAMP in the standard or sample. Test compounds (10 mM in DMSO) were diluted into assay buffer (HBSS (Sigma #H8264) supplemented with 25 mM HEPES (Gibco #15630, pH 7.4), 0.1% BSA (Sigma #A3059) and 0.5 mM IBMX (Sigma #I7018) included fresh on the day of the assay) into 96 well U-bottom plates (Greiner #650201). Diluted compounds were transferred to ECHO source polypropelene plates (Labcyte #P-05525) and dose response curves were dispensed acoustically using ECHO 550 into black shallow-well u-bottom 384-well HTRF Assay Plates (Corning 4514). Cryovials of EndoC-H1 (supplied at 1×10e^7 cells/vial) were used directly for screening. The cryovials and were removed from N2(1) and thawed rapidly in a 37° C. water bath. The cells were resuspended in assay buffer and centrifuged at 300 g for 5 min. Cells were resuspended in assay buffer at the appropriate concentration, typically at 12e5 cells per mL (3000 cells per well, dependent on cell batch) and 2.5 μL diluted cells were added to all wells of destination plate by Multidrop combi reagent dispenser (Thermofisher). The plates were incubated at rt for 30 min. The assay was stopped by adding 2.5 μL anti-cAMP cryptate solution to all wells and 2.5 μL cAMP-d2 solution (both diluted 1:20 in lysis buffer) to columns 1-22 by Combi drop. A volume of 2.5 μL cAMP-d2 solution was added to wells E23 to P24 and 2.5 μL lysis buffer added to wells A23 to D24 by multichannel pipette. The plates were incubated at rt for 1 h and read on an Envision plate reader using excitation wavelength of 320 nm and emission of […] and 660 nm.
Raw data from Envision is converted to % DeltaF according to the manufacturer's instructions. Dose response curves are analysed via 4-Parameter Logistical Analysis and assay plate Z’ values obtained. Samples are graphed as percentage (%) activation plots compared to […] with assay window defined by negative control as basal cell is cAMP levels and positive control are defined by maximum GIP (82.5 nM) signal. GLP-1 (7-36 amide, Bachem H-6795) dose response curve was included on all plates.

T2 sequence (P43220 24-463): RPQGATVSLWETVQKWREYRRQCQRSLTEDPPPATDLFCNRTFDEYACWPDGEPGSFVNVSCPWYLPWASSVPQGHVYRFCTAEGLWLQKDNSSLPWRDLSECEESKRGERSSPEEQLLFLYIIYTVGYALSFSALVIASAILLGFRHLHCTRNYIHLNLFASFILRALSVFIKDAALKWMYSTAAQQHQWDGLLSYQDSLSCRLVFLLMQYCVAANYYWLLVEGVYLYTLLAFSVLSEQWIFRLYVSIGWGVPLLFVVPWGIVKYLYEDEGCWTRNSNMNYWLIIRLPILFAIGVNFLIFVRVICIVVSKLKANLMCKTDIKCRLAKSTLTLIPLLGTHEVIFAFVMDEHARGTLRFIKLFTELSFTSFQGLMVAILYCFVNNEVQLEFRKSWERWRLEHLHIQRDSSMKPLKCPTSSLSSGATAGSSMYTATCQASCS
T1 sequence (P43220 24-463 L260F): as the sequence (P43220 24-463) above, with L237F counted along it

| EC50 (human GLP-1R receptor) | EC50 [1] | SMILES |
| --- | --- | --- |
| 400 nM | 590 nM | COc1cc(C(=O)O)cc2c1nc(CN1CCN(c3cccc4c3O[C@@](C)(c3ccc(Cl)cn3)O4)[C@@H]3CC[C@@H]31)n2C[C@@H]1CCCO1 (relative stereo) [Example 8b, 2-((1R*,6S*)-5-(R*)-2-(5-Chloropyridin-2-yl)-2-methylbenzo[d][1,3]dioxol-4-yl)-2,5-diazabicyclo[4.2.0]octan-2-yl)methyl)-4-methoxy-1-(((S)-tetrahydrofuran-2-yl)methyl)-1H-benzo[d]imidazole-6-carboxylic acid] |
| 2.3 nM | 4.3 nM | C[C@]1(c2ccc(Cl)cc2F)Oc2cccc(N3CCN(Cc4nc5c(F)cc(C(=O)O)cc5n4C[C@@H]4CCO4)[C@H]4CC[C@H]43)c2O1 (relative stereo) [Example 9d, 2-((1R*,6S*)-5-(R*)-2-(4-Chloro-2-fluorophenyl)-2-methylbenzo[d][1,3]dioxol-4-yl)-2,5-diazabicyclo[4.2.0]octan-2-yl)methyl)-4-fluoro-1-(((S)-oxetan-2-yl)methyl)-1H-benzo[d]imidazole-6-carboxylic acid] |
| 42 nM | – | C[C@]1(c2ccc(Cl)cn2)Oc2cccc(N3CCN(Cc4nc5c(Cl)cc(C(=O)O)cc5n4C[C@@H]4CCO4)[C@H]4CC[C@H]43)c2O1 (relative stereo) [Example 20a, 4-Chloro-2-(((1R*,6S*)-5-((R*)-2-(5-chloropyridin-2-yl)-2-methylbenzo[d1[1,3]dioxol-4-yl)-2,5-diazabicyclo[4.2.0]]octan-2-yl)methyl)-1-(((S)-oxetan-2-yl)methyl)-1H-benzo[d]imidazole-6-carboxylic acid] |
| 66 nM | 280 nM | C[C@]1(c2ccc(Cl)cn2)Oc2cccc(N3CCN(Cc4nc5c(F)cc(C(=O)O)cc5n4C[C@@H]4CCO4)[C@H]4CC[C@H]43)c2O1 (single isomer, unassigned) [Example 1a, 2-((1R*,6S*)-5-(R*)-2-(5-Chloropyridin-2-yl)-2-methylbenzo[d][1,3]dioxol-4-yl)-2,5-diazabicyclo[4.2.0]octan-2-yl)methyl)-4-fluoro-1-(((S)-oxetan-2-yl)methyl)-1H-benzo[d]imidazole-6-carboxylic acid] |
| 220 nM | 4400 nM | C[C@]1(c2ccc(Cl)cn2)Oc2cccc(N3CCN(Cc4nc5c(Cl)cc(C(=O)O)cc5n4C[C@@H]4CCO4)[C@H]4CC[C@@H]43)c2O1 (single isomer, unassigned) [Example 3a, 4-Chloro-2-(((1R*,6R*)-5-((R*)-2-(5-chloropyridin-2-yl)-2-methylbenzo[d][1,3]dioxol-4-yl)-2,5-diazabicyclo[4.2.0]octan-2-yl)methyl)-1-(((S)-oxetan-2-yl)methyl)-1H-benzo[d]imidazole-6-carboxylic acid] |
| 140 nM | – | C[C@]1(c2ccc(Cl)cn2)Oc2cccc(N3CCN(Cc4nc5c(Cl)cc(C(=O)O)cc5n4C[C@@H]4CCO4)[C@H]4CC[C@H]43)c2O1 (single isomer, unassigned) [Example 20b, 4-Chloro-2-(((1R*,6S*)-5-((R*)-2-(5-chloropyridin-2-yl)-2-methylbenzo[d][1,3]dioxol-4-yl)-2,5-diazabicyclo[4.2.0]octan-2-yl)methyl)-1-(((S)-oxetan-2-yl)methyl)-1H-benzo[d]imidazole-6-carboxylic acid] |

The remaining lines, values behind:

| SMILES | EC50 (human GLP-1R receptor) | EC50 [1] |
| --- | --- | --- |
| COc1cc2nc(CN3CCN(c4cccc5c4OC(C)(c4ccc(Cl)cn4)O5)[C@H]4CC[C@@H]43)n(C[C@@H]3CCO3)c2cc1C(=O)O (mixture of isomers) [Example 12, 2-(((1RS,6RS)-5-(2-(5-Chloropyridin-2-yl)-2-methylbenzo[d][1,3]dioxol-4-yl)-2,5-diazabicyclo[4.2.0]octan-2-yl)methyl)-5-methoxy-1-(((S)-oxetan-2-yl)methyl)-1H-benzo[d]imidazole-6-carboxylic acid] | 200 nM | 320 nM |
| COc1cc(C(=O)O)cc2c1nc(CN1CCN(c3cccc4c3OC(C)(c3ccc(Cl)cn3)O4)[C@H]3CC[C@@H]31)n2CCOC1CC1(F)F (mixture of isomers) [Example 13, rac-2-(((1R,6R)-5-(2-(5-Chloropyridin-2-yl)-2-methylbenzo[d][1,3]dioxol-4-yl)-2,5-diazabicyclo[4.2.0]octan-2-yl)methyl)-1-(2-(2,2-difluorocyclopropoxy)ethyl)-4-methoxy-1H-benzo[d]imidazole-6-carboxylic acid] | 5.2 nM | – |
| CC1(c2ccc(Cl)cn2)Oc2cccc(N3CCN(Cc4nc5c(F)cc(C(=O)O)cc5n4CCOC4CC4(F)F)[C@H]4CC[C@@H]43)c2O1 (mixture of isomers) [Example 14, rac-2-(((1R,6R)-5-(2-(5-Chloropyridin-2-yl)-2-methylbenzo[d][1,3]dioxol-4-yl)-2,5-diazabicyclo[4.2.0]octan-2-yl)methyl)-1-(2-(2,2-difluorocyclopropoxy)ethyl)-4-fluoro-1H-benzo[d]imidazole-6-carboxylic acid] | 45 nM | 38 nM |
| COc1cc(C(=O)O)cc2c1nc(CN1CCN(c3cccc4c3O[C@@](C)(c3ccc(Cl)cn3)O4)[C@H]3CC[C@@H]31)n2CCOC1CC1 (relative stereo) [Example 27, rel-2-(((1R,6R)-5-((R)-2-(5-Chloropyridin-2-yl)-2-methylbenzo[d][1,3]dioxol-4-yl)-2,5-diazabicyclo[4.2.0]octan-2-yl)methyl)-1-(2-cyclopropoxvethyl)-4-methoxy-1H-benzo[d]imidazole-6-carboxylic acid] | 65 nM | 200 nM |
| C[C@]1(c2ccc(Cl)cn2)Oc2cccc(N3CCN(Cc4nc5ccc(C(=O)O)cc5n4C[C@@H]4CCO4)[C@H]4CC[C@H]43)c2O1 (single isomer, unassigned) [Example 5b, 2-((1R*,6S*)-5-(R*)-2-(5-Chloropyridin-2-yl)-2-methylbenzo[d][1,3]dioxol-4-yl)-2,5-diazabicyclo[4.2.0]octan-2-yl)methyl)-1-(((S)-oxetan-2-yl)methyl)-1H-benzo[d]imidazole-6-carboxylic acid] | 18 nM | 120 nM |
